Measured values: patent US20150133369A1, “PHARMACOKINETIC MODULATION WITH ALISPORIVIR” (priority 2012, published 2015)
Like-named read-outs stand apart in the source and are kept apart here. Values belong to the compound of their own block, whether it stands above or below them.

Experiments:
[1] = clinical drug-drug interaction study: effect of alisporivir on buspirone (sensitive CYP3A4 substrate) pharmacokinetics; settings: alisporivir 600 mg BID for 7 days; single oral 5 mg dose of buspirone
[2] = biological target: T1, UGT2B7 (Homo sapiens, UniProt P16662)
T1 sequence (P16662 24-529): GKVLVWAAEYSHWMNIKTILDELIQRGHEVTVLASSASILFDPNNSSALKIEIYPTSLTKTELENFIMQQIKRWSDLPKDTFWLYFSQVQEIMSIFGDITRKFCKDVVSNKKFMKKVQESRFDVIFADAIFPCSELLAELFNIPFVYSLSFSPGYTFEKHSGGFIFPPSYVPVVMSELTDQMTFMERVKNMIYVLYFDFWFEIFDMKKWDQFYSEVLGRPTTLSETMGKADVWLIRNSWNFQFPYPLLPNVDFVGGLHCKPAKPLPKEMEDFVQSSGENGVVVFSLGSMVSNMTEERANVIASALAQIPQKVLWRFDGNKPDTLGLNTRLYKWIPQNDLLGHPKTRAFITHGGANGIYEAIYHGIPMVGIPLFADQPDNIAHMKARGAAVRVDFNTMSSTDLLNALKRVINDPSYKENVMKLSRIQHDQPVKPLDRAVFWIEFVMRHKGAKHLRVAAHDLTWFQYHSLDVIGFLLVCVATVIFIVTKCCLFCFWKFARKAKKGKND

[3] = biological target: BSEP (Homo sapiens, UniProt O95342)
BSEP, sequence (O95342 whole entry): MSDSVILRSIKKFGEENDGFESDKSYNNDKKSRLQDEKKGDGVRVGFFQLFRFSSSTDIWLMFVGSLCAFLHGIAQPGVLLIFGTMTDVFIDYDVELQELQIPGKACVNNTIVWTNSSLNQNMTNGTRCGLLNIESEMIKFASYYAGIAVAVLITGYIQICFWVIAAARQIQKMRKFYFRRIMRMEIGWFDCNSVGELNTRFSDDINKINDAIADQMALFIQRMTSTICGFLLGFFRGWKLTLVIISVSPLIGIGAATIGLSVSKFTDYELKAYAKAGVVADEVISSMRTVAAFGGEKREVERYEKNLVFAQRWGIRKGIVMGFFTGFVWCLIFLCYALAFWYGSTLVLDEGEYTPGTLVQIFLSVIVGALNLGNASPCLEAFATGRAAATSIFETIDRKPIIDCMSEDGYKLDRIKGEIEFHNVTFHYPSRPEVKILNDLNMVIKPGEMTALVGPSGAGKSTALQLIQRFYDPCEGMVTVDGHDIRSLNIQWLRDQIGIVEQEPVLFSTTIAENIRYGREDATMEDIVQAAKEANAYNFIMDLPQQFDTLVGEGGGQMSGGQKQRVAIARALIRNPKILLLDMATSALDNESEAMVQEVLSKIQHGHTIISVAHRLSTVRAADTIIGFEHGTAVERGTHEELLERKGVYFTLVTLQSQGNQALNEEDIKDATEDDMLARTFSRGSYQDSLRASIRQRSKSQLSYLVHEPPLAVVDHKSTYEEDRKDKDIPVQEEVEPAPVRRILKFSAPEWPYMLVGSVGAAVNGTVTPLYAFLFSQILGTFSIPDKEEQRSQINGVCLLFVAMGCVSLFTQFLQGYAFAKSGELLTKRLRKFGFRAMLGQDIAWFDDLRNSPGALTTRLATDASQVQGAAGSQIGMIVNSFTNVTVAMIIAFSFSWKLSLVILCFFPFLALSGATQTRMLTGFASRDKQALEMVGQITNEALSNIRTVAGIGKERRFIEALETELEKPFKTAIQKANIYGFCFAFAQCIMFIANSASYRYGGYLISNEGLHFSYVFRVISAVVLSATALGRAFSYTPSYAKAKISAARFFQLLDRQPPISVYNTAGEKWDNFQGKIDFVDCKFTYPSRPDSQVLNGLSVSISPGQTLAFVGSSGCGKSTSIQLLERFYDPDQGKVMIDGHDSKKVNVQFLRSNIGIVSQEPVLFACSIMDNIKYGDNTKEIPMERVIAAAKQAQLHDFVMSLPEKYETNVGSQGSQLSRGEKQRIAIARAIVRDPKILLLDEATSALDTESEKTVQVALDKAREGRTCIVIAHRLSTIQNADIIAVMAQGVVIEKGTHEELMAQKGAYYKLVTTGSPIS

[4] = biological target: T2, OATP1B3 (Homo sapiens, UniProt Q9NPD5)
T2 sequence (Q9NPD5 1-702): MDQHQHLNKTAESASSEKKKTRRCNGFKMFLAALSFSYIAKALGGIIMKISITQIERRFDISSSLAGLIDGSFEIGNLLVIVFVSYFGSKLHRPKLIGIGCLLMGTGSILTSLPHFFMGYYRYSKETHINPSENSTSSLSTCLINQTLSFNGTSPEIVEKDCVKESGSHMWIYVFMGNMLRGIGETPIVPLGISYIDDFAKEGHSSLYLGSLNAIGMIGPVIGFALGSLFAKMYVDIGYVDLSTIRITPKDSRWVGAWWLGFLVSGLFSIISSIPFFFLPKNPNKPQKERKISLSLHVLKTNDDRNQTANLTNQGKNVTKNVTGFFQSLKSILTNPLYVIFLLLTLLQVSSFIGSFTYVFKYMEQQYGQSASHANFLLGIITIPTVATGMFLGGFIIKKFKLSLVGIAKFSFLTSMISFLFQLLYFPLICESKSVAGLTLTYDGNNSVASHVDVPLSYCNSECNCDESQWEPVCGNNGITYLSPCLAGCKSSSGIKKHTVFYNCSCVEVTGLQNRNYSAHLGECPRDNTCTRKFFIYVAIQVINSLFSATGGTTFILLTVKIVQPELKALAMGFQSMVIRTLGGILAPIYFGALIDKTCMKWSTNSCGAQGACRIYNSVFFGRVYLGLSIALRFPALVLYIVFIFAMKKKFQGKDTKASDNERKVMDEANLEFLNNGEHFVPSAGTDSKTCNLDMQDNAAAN

[5] = test system: HIV-1; settings: in vitro; more potent than CsA; cited from earlier work
[6] = biological target: T3, MRP2 (Homo sapiens, UniProt Q92887)
T3 sequence (Q92887 whole entry): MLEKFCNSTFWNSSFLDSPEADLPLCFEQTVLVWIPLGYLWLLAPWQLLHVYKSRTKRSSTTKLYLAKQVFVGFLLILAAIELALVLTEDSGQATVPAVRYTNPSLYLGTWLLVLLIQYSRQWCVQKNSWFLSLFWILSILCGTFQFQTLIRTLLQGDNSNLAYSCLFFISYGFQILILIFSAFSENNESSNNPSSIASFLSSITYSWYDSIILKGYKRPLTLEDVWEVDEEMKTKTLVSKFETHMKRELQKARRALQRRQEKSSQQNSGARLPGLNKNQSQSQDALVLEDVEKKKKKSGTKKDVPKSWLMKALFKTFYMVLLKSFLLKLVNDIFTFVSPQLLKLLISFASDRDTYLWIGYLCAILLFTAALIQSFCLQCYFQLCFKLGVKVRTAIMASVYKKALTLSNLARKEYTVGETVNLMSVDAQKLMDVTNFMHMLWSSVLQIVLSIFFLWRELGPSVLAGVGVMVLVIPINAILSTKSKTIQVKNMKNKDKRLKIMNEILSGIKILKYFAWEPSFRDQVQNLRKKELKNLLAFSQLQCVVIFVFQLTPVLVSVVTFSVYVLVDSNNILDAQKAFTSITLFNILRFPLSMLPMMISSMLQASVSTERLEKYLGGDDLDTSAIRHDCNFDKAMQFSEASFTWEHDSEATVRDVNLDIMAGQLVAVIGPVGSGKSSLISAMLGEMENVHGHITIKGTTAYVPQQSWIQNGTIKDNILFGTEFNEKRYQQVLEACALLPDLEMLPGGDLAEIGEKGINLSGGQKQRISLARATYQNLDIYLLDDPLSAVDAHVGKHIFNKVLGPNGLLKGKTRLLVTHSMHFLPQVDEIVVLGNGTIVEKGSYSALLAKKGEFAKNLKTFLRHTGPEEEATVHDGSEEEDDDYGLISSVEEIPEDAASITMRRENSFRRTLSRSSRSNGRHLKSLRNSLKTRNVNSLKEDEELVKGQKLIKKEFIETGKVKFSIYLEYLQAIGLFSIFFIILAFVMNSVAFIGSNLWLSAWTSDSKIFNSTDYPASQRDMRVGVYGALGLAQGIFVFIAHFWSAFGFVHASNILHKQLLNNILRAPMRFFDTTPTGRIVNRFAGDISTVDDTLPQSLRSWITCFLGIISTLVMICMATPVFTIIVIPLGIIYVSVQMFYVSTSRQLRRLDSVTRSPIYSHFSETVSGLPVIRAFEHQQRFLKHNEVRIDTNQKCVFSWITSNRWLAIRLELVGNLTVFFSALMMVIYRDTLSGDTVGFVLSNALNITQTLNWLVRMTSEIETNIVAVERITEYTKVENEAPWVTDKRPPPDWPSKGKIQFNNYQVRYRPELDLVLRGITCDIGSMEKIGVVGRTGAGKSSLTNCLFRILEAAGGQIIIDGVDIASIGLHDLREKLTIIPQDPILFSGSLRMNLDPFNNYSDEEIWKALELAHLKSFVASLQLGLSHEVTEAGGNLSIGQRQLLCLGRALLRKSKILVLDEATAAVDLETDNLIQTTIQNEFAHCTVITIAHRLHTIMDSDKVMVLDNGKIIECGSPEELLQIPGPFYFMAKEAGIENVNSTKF

[7] = biological target: T3, MRP2; settings: not told
[8] = biological target: T2, OATP1B3; remark: listed apart in the source
[9] = human, in vivo, po
[10] = biological target: T4, NTCP (Homo sapiens, UniProt Q14973)
T4 sequence (Q14973 1-349): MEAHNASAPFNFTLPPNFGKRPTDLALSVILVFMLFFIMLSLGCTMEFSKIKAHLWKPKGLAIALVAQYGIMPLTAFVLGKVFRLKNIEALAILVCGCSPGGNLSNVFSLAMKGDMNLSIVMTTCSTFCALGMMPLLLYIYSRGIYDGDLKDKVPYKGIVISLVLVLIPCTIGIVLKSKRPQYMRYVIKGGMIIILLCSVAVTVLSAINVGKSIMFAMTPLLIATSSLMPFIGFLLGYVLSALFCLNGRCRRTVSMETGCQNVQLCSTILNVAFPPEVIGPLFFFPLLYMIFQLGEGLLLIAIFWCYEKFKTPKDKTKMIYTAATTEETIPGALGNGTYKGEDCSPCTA

[11] = test system: CYP isozymes
[12] = human, in vivo, po; remark: listed apart in the source
[13] = biological target: CYP3A4 (Homo sapiens, UniProt P08684)
CYP3A4, sequence (P08684 whole entry): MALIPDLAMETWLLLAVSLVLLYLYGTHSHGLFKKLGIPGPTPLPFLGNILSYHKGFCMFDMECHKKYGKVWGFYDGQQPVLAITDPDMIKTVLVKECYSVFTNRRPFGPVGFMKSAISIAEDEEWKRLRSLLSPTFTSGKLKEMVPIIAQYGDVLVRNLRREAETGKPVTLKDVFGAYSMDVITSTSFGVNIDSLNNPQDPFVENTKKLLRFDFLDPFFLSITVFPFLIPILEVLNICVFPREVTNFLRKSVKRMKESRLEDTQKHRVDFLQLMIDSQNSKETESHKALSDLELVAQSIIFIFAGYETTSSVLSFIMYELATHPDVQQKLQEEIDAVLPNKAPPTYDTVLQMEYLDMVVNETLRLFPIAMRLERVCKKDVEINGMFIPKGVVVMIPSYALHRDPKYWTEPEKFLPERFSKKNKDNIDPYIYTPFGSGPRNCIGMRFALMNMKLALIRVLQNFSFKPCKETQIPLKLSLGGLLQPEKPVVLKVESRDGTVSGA

[14] = biological target: T5, OATP1B1 (Homo sapiens, UniProt Q9Y6L6)
T5 sequence (Q9Y6L6 1-691): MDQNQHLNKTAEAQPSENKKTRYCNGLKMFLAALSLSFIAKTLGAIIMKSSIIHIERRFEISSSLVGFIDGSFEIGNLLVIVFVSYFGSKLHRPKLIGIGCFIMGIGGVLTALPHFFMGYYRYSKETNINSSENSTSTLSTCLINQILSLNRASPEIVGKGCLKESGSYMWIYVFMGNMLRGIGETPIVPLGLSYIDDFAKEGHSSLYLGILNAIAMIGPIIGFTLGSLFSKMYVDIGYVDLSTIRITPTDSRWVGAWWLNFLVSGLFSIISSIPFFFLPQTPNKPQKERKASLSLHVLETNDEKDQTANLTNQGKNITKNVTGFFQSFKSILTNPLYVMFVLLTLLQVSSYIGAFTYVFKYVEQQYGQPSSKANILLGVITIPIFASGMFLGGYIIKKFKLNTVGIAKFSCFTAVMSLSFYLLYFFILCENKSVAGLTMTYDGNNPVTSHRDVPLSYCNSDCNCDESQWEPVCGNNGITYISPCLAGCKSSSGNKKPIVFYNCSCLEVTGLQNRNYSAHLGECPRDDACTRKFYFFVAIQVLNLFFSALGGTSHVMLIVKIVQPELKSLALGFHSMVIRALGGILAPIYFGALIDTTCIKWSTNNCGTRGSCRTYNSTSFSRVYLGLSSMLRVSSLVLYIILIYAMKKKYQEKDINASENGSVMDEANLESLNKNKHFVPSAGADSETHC

[15] = biological target: T5, OATP1B1; remark: listed apart in the source
[16] = biological target: P-gp (Homo sapiens, UniProt P08183); settings: not told
P-gp, sequence (P08183 whole entry): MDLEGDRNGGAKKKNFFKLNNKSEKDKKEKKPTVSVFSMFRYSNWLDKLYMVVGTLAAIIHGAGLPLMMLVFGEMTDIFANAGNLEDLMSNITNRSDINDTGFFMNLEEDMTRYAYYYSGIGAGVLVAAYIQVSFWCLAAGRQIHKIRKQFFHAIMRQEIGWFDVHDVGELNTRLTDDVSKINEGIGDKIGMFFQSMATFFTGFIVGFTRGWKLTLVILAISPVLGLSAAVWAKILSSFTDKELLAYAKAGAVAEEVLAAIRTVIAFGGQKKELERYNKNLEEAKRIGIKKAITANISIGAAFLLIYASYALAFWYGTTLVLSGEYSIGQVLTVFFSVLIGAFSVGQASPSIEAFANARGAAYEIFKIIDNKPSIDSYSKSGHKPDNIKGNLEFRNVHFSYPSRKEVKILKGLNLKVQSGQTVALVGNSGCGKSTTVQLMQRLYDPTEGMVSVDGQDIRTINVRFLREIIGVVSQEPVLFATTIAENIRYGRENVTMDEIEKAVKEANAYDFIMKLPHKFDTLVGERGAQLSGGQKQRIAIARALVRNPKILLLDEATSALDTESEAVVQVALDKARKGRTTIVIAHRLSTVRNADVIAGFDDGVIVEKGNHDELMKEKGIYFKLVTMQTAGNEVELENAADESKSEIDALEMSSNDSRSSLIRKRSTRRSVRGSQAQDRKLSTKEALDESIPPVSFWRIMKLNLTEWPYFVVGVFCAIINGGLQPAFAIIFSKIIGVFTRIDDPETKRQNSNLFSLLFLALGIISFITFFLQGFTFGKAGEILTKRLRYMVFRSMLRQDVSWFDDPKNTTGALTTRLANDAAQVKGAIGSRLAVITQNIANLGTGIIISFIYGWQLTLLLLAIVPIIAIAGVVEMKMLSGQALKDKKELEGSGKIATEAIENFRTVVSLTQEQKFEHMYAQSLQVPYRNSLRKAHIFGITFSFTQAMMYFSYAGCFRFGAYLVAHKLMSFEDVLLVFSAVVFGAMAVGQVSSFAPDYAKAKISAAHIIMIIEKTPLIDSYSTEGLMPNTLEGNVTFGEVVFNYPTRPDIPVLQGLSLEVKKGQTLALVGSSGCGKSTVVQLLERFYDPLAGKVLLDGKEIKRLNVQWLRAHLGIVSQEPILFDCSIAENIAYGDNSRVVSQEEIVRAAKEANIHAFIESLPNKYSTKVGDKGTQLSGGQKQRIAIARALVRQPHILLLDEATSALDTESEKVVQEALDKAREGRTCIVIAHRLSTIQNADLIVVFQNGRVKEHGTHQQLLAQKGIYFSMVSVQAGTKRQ

[17] = biological target: T6, UGT1A1 (Homo sapiens, UniProt P22309)
T6 sequence (P22309 26-533): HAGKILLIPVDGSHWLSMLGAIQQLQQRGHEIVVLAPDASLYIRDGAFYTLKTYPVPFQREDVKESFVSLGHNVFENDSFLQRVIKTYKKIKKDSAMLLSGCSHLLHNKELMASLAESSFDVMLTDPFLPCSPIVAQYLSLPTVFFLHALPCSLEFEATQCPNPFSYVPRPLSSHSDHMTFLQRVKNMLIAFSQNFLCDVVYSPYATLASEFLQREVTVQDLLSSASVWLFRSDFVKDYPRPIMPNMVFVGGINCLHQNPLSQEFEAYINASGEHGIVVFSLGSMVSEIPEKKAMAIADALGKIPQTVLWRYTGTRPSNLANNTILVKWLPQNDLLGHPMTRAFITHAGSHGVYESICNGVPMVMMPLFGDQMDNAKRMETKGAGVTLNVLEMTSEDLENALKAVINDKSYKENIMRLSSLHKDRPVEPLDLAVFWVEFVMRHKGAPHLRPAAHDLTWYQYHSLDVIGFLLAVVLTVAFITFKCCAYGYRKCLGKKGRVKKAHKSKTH

[18] = clinical drug-drug interaction study: effect of alisporivir on azithromycin (CYP3A4 substrate) pharmacokinetics; type: in vivo, human; settings: single 1200 mg oral dose of alisporivir; single oral 1000 mg dose of azithromycin
[19] = clinical drug-drug interaction study: effect of alisporivir on boceprevir (CYP3A4 and P-gp substrate) pharmacokinetics; type: in vivo; settings: healthy human subjects; alisporivir 600 mg BID for 7 days and 600 mg QD for one additional day; single 400 mg oral dose of boceprevir
Method: The T1/2 of boceprevir was similar when boceprevir was administered with alisporivir.

[20] = clinical drug-drug interaction study: effect of alisporivir on digoxin (P-gp substrate) pharmacokinetics; type: in vivo, human; settings: alisporivir 600 mg BID for 7 days; single oral 0.25 mg dose of digoxin
Method: Digoxin 0.25 mg is generally initiated in patients under the age of 70 with good renal function. When digoxin is taken with food high in bran fiber, the amount absorbed from an oral dose may be reduced.

[21] = human, in vivo, po; remark: listed apart in the source
[22] = human, in vivo, po; remark: listed apart in the source
[23] = alisporivir 600 mg BID for 10 days; single 40 mg oral dose of atorvastatin
[24] = clinical drug-drug interaction study: effect of alisporivir on telaprevir (CYP3A4 and P-gp substrate) pharmacokinetics; type: in vivo; settings: healthy human subjects; alisporivir 600 mg BID for 7 day and 600 mg QD for one additional day; single 375 mg oral dose of telaprevir
Method: The T1/2 of telaprevir was longer when telaprevir was administered with alisporivir.

[25] = clinical drug-drug interaction study: effect of alisporivir on valsartan (CYP2C9, OATP1B1, OATP1B3, MRP2 substrate) pharmacokinetics; settings: alisporivir 600 mg BID for 7 days; single oral 40 mg dose of valsartan
[26] = effect of alisporivir on circulating bilirubin concentrations in healthy subjects; settings: 40 mg valsartan before and after alisporivir 600 mg BID 7 days then QD

SMILES: c1cnc(N2CCNCC2)nc1 [1-PP]
AUC increase (metabolite of buspirone) [1]: 12-15%

SMILES: C/C=C/C[C@@H](C)[C@@H](O)[C@H]1C(=O)N[C@@H](CC)C(=O)N(C)[C@H](C)C(=O)N(CC)[C@@H](C(C)C)C(=O)N[C@@H](C(C)C)C(=O)N(C)[C@@H](CC(C)C)C(=O)N[C@@H](C)C(=O)N[C@H](C)C(=O)N(C)[C@@H](CC(C)C)C(=O)N(C)[C@@H](CC(C)C)C(=O)N(C)[C@@H](C(C)C)C(=O)N1C [alisporivir]
inhibition of UGT2B7 [2]: does not inhibit
inhibition of BSEP [3]: inhibitor
inhibition of OATP1B3 [4]: inhibitor
anti-HIV-1 potency relative to CsA [5]: approximately 10 fold
Ki [6]: 5.9 µM
inhibition of MRP2 [7]: inhibitor
IC50 [8]: 700 nM
T1/2 when administered with telaprevir [9]: shorter
inhibition of NTCP [10]: inhibitor
inducing effects on CYP isozymes [11]: no inducing effects
T1/2 when administered with boceprevir [12]: shorter
inhibition of CYP3A4 [13]: time-dependent inhibitor of CYP3A4
inhibition of OATP1B1 [14]: inhibitor
IC50 [15]: 700 nM
inhibition of P-gp [16]: inhibitor
inhibition of UGT1A1 [17]: does not inhibit

SMILES: CC(C)(C)NC(=O)N[C@H](C(=O)N1C[C@H]2[C@@H]([C@H]1C(=O)NC(CC1CCC1)C(=O)C(N)=O)C2(C)C)C(C)(C)C (some centres unmarked) [boceprevir]
T1/2 when administered with alisporivir [19]: similar
increase in the Cmax [19]: ~47%

SMILES: C[C@H]1O[C@@H](O[C@H]2[C@@H](O)C[C@H](O[C@H]3[C@@H](O)C[C@H](O[C@H]4CC[C@@]5(C)[C@H](CC[C@@H]6[C@@H]5C[C@@H](O)[C@]5(C)[C@@H](C7=CC(=O)OC7)CC[C@]65O)C4)O[C@@H]3C)O[C@@H]2C)C[C@H](O)[C@@H]1O [digoxin]
effect of alisporivir on renal clearance [20]: did not affect
increase in Cmax [20]: ~1.8 fold
increase in the AUC [20]: ~2.6 fold

SMILES: CCC[C@H](NC(=O)[C@@H]1[C@H]2CCC[C@H]2CN1C(=O)[C@@H](NC(=O)[C@@H](NC(=O)c1cnccn1)C1CCCCC1)C(C)(C)C)C(=O)C(=O)NC1CC1 [telaprevir]
T1/2 when administered with alisporivir [24]: longer
increase in the Cmax [24]: ~2.4 fold

Next, values leading:

increase in the AUC [18]: 32-39%
SMILES: CC[C@H]1OC(=O)[C@H](C)[C@@H](O[C@H]2C[C@@](C)(OC)[C@@H](O)[C@H](C)O2)[C@H](C)[C@@H](O[C@@H]2O[C@H](C)C[C@H](N(C)C)[C@H]2O)[C@](C)(O)C[C@@H](C)CN(C)[C@H](C)[C@@H](O)[C@]1(C)O [azithromycin]

T1/2 when administered with alisporivir [21]: similar
SMILES: CN(C)CCC[C@@]1(c2ccc(F)cc2)OCc2cc(C#N)ccc21 [escitalopram]

T1/2 when administered with alisporivir [22]: longer
SMILES: CC(C)n1c(/C=C/C(O)CC(O)CC(=O)O)c(-c2ccc(F)cc2)c2ccccc21 (centres unmarked) [fluvastatin]

increase in exposure (AUC) [23]: ~9 fold
increase in exposure (Cmax) [23]: approximately 7 fold
SMILES: CC(C)c1c(C(=O)Nc2ccccc2O)c(-c2ccccc2)c(-c2ccc(F)cc2)n1CCC(O)CC(O)CC(=O)O (centres unmarked) [o-OH-atorvastatin]

increase in Cmax [25]: approximately 2.3 fold
increase in the AUC [25]: ~6 fold
Valsartan exposure increased [26]: ~6 fold
SMILES: CCCCC(=O)N(Cc1ccc(-c2ccccc2-c2nnn[nH]2)cc1)[C@H](C(=O)O)C(C)C [valsartan]
